ChEMBL document CHEMBL4819046, “One pot synthesis, in silico study and evaluation of some novel flavonoids as potent topoisomerase II inhibitors” (Bioorg Med Chem Lett, 2021)
Calls of active or inactive are those of the source. The calls are words filed in the database; no cut-off is given here.

Experiments:
HepG2 = assay: Cytotoxicity against human HepG2 cells assessed as inhibition of cell proliferation after 72 hrs by MTT assay; assay type: functional, cell-based; details: HepG2, 72 h
A549 = assay: Cytotoxicity against human A549 cells assessed as inhibition of cell proliferation after 72 hrs by MTT assay; assay type: functional, cell-based; details: A549, 72 h
MCF-10A [1] = assay: Cytotoxicity against human MCF-10A cells assessed as reduction in cell viability after 72 hrs by MTT assay; assay type: cell-based
[2] = target: T1, DNA topoisomerase 2-alpha (Homo sapiens, UniProt P11388); assay: Inhibition of human topoisomerase-2 alpha in human A498 cells assessed as decrease in relaxation of supercoiled DNA at 10 uM; assay type: cell-based
MCF-10A [3] = assay: Cytotoxicity against human MCF-10A cells at <= 25 uM after 72 hrs by MTT assay; assay type: cell-based
MCF-10A [4] = assay: Cytotoxicity against human MCF-10A cells at 50 uM after 72 hrs by MTT assay; assay type: cell-based
MCF7 = assay: Cytotoxicity against human MCF7 cells assessed as inhibition of cell proliferation after 72 hrs by MTT assay; assay type: functional, cell-based; details: MCF7, 72 h
MCF-10A [5] = assay: Cytotoxicity against human MCF-10A cells at 100 uM after 72 hrs by MTT assay; assay type: cell-based
[6] = target: T1, DNA topoisomerase 2-alpha; assay: Inhibition of human topoisomerase-2alpha assessed as reduction in pBR322 DNA relaxation by gel electrophoresis method

T1 sequence (P11388 whole entry): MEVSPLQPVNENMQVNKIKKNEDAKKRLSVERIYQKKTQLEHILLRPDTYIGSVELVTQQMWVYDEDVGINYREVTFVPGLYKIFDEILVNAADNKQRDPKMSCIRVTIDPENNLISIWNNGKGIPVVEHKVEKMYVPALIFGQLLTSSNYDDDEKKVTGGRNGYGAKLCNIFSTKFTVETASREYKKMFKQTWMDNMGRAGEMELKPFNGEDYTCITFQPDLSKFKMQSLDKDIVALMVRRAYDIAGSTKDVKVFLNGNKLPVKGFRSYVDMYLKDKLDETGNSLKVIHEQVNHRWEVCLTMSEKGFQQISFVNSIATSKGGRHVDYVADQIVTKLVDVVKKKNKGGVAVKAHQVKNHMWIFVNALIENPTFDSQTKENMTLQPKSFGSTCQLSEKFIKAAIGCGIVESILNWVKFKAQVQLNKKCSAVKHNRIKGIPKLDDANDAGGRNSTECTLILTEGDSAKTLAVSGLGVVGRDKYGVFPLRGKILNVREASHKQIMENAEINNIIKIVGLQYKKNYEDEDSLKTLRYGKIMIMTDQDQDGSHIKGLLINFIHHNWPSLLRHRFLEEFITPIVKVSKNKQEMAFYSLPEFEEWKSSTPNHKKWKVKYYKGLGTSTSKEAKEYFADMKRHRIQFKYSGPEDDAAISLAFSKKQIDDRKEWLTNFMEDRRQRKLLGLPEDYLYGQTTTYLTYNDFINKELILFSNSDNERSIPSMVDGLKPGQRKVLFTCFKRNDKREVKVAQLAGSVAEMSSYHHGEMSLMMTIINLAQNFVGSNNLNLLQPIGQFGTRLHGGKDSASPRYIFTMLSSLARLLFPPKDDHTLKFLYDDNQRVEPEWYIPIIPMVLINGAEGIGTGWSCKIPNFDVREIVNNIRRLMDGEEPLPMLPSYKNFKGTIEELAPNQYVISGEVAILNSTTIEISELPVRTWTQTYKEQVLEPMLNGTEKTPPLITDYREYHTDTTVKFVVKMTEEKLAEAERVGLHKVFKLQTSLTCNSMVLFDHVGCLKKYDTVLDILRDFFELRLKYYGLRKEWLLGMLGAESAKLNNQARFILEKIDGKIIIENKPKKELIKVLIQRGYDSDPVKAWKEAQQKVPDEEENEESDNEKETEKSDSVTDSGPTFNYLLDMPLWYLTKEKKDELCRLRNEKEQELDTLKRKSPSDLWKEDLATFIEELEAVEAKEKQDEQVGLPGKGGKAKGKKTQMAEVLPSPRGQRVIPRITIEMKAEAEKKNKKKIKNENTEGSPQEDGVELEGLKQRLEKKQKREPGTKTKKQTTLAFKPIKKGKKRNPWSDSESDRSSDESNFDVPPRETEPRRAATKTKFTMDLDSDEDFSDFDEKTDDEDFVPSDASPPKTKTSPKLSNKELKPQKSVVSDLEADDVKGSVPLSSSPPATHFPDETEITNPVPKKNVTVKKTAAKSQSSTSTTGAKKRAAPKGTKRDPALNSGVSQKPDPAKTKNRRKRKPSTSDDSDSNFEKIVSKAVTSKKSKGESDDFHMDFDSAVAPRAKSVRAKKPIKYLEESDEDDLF

Structure (SMILES) | IC50 (HepG2) | IC50 (A549) | IC50 (MCF-10A [1]) | IC50 [2] | Activity (MCF-10A [3]) | Activity (MCF-10A [4]) | IC50 (MCF7) | Activity (MCF-10A [5]) | inhibition [6]
N#CC1=C(N)Oc2c(c(=O)oc3ccccc23)C1c1cnc2ccccc2c1 (configuration not stated) | 6.25 µM | 6.25 µM | 94 µM | 16.7 µM | Non-Toxic | Toxic | 1.56 µM |  | 
N#CC1=C(N)Oc2c(c(=O)oc3ccccc23)C1C1CC1 (configuration not stated) | 12.5 µM | 25 µM |  |  | Non-Toxic |  | 25 µM | Toxic | 
Cc1cc2occ(-c3nc(-c4ccccc4)c(-c4ccccc4)n3-c3ccc(Cl)c(Cl)c3)c(=O)c2cc1Cl | 12.5 µM | 6.25 µM | 98 µM | 39.9 µM | Non-Toxic | Toxic | 1.56 µM |  | 
Cc1ccc(-n2c(-c3coc4cc(C)c(Cl)cc4c3=O)nc(-c3ccccc3)c2-c2ccccc2)c(C)c1 | 3.12 µM | 6.25 µM |  |  | Non-Toxic |  | 6.25 µM | Toxic | 
Cc1cccc(-n2c(-c3coc4cc(C)c(Cl)cc4c3=O)nc(-c3ccccc3)c2-c2ccccc2)c1 | 6.25 µM | 12.5 µM |  |  | Non-Toxic |  | 12.5 µM | Toxic | 
COc1ccc(C2C(C#N)=C(N)Oc3c2c(=O)oc2ccccc32)c(OC)c1 (configuration not stated) | 3.12 µM | 6.25 µM |  |  | Non-Toxic |  | 25 µM | Toxic | 
Cc1cc2occ(-c3nc(-c4ccccc4)c(-c4ccccc4)n3-c3ccc(Br)cc3)c(=O)c2cc1Cl | 6.25 µM | 25 µM | > 100 µM | 17.1 µM | Non-Toxic | Toxic | 1.56 µM |  | 
Cc1cc2occ(-c3nc(-c4ccccc4)c(-c4ccccc4)n3-c3cccc(Cl)c3)c(=O)c2cc1Cl | 25 µM | 25 µM |  |  | Non-Toxic |  | 6.25 µM | Toxic | 
N#CC1=C(N)Oc2c(c(=O)oc3ccccc23)C1c1cc(=O)c2ccccc2o1 (configuration not stated) | 6.25 µM | 1.56 µM | 90 µM | 26.4 µM | Non-Toxic | Toxic | 12.5 µM |  | 
Cc1cc2occ(-c3nc(-c4ccccc4)c(-c4ccccc4)n3-c3ccc([N+](=O)[O-])cc3)c(=O)c2cc1Cl | 25 µM | 3.12 µM | > 100 µM | 48.4 µM | Non-Toxic |  | 6.25 µM | Toxic | 
Cc1cc2occ(-c3nc(-c4ccccc4)c(-c4ccccc4)n3-c3ccccc3Cl)c(=O)c2cc1Cl | 6.25 µM | 12.5 µM |  |  | Non-Toxic |  | 3.12 µM | Toxic | 
COc1ccccc1-n1c(-c2coc3cc(C)c(Cl)cc3c2=O)nc(-c2ccccc2)c1-c1ccccc1 | 12.5 µM | 12.5 µM |  |  | Non-Toxic |  | 25 µM | Toxic | 
Cc1cc2occ(C3C(C#N)=C(N)Oc4c3c(=O)oc3ccccc43)c(=O)c2cc1Cl (configuration not stated) | 12.5 µM | 6.25 µM |  |  | Non-Toxic |  | 6.25 µM | Toxic | 
Cc1ccc(-n2c(-c3coc4cc(C)c(Cl)cc4c3=O)nc(-c3ccccc3)c2-c2ccccc2)cc1 | 6.25 µM | 12.5 µM |  |  | Non-Toxic |  | 12.5 µM | Toxic | 
N#CC1=C(N)Oc2c(c(=O)oc3ccccc23)C1c1cc2ccccc2c2ccccc12 (configuration not stated) | 25 µM | 25 µM |  |  | Non-Toxic |  | 25 µM | Toxic | 
COc1cccc(-n2c(-c3coc4cc(C)c(Cl)cc4c3=O)nc(-c3ccccc3)c2-c2ccccc2)c1 | 6.25 µM | 6.25 µM |  |  | Non-Toxic |  | 25 µM | Toxic | 
N#CC1=C(N)Oc2c(c(=O)oc3ccccc23)C1c1cc2ccccc2s1 (configuration not stated) | 6.25 µM | 1.56 µM | 98 µM | 10.3 µM | Non-Toxic | Toxic | 1.56 µM |  | Active
Cc1cc2occ(-c3nc(-c4ccccc4)c(-c4ccccc4)n3-c3ccc(Cl)cc3)c(=O)c2cc1Cl | 1.56 µM | 12.5 µM | 92 µM |  | Non-Toxic | Toxic | 12.5 µM |  | 
N#CC1=C(N)Oc2c(c(=O)oc3ccccc23)C1c1c2ccccc2cc2ccccc12 (configuration not stated) | 25 µM | 25 µM |  |  | Non-Toxic |  | 12.5 µM | Toxic | 
Cc1cc2occ(-c3nc(-c4ccccc4)c(-c4ccccc4)n3-c3cccc([N+](=O)[O-])c3)c(=O)c2cc1Cl | 25 µM | 6.25 µM |  |  | Non-Toxic | Toxic | 1.56 µM |  | 
N#CC1=C(N)Oc2c(c(=O)oc3ccccc23)C1c1c[nH]c2ccccc12 (configuration not stated) | 12.5 µM | 1.56 µM | 94 µM | 12.4 µM | Non-Toxic | Toxic | 1.56 µM |  | Active
